Results reported in US20130165520A1, “Hybrid Molecule Having Mixed Retinoic Acid Receptor Agonism and Histone Deacetylase Inhibitory Properties” (priority 2010, published 2013).
One block for each compound: values may come before it.

What was measured:
Assay type in all cases: cell-based
RARα = target: T1, RARα (Homo sapiens, UniProt P10276); assay: BRET assay of agonist-dependent coactivator recruitment in transfected HEK293 cells; conditions: 1 μM, 2 hours treatment
T1 sequence (P10276 1-462): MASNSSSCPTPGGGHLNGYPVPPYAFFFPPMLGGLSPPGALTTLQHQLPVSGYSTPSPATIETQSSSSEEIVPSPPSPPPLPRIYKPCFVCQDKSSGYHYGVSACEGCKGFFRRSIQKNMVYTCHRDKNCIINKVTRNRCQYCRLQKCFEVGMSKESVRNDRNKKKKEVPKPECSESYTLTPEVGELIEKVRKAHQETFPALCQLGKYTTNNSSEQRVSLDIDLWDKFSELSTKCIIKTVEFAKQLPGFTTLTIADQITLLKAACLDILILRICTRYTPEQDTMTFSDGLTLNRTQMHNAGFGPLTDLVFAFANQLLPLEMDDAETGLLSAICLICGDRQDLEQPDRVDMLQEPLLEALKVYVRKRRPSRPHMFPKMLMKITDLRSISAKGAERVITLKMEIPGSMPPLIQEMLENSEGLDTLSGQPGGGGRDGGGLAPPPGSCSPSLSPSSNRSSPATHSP
Experimental: Hybrid 3 was prepared by treatment of the methyl ester of TTNN with excess hydroxylamine under alkaline conditions. The effects of hybrid 3 on RAR were initially assessed using a bioluminescence resonance energy transfer (BRET) assay. The BRET assay monitors agonist-dependent recruitment of coactivators to RARs in transfected HEK293 cells, chosen because of their high degree of transfectability. Energy transfer between luciferase (fused to RARα) and eGFP (fused to the LXXLL coactivator motif) occurs only when these moieties are juxtaposed by the RAR-LXXLL interaction, and can be detected by the emission of green fluorescence.
Cell transfection and BRET assays: HEK293 cells were grown to confluence, trypsinized and plated at a density of 500 k cells per well (12-well plates) in DMEM supplemented with 10% charcoal treated FBS (FBS-T). The following day, cells were transfected with PEI using 0.1 μg of RAR-RLuc vector and 1 μg of LXXLL-eGFP vector. 48 hours post-transfection, cells were treated with retinoids for 2 hours before taking BRET measurements as described previously.

[1] = test system: RAR target genes in MCF-7 cell line; assay: RT-qPCR analysis of RAR target genes
Description: (§1) The agonist activity of 3 through its effects on RAR target genes was subsequently analyzed (FIG. 3).

[2] = test system: RAR target genes in MDA-MB-231 cell line; assay: RT-qPCR analysis of RAR and HDACi target genes; conditions: MDA-MB-231 cell line
Description: as §1

MDA-MB-231 = assay: Cell growth measurement; conditions: 10 days of treatment
Experimental: (§2) Finally, the effects of 3 on the growth of several breast cancer cell lines [MCF-7 (ER-positive, HER2-negative, RA-sensitive); SkBr3 (ER-negative, HER2-amplified, RA-sensitive); and the normally RA-insensitive MDA-MB-231 (ER-negative, HER2-negative, RA-insensitive)] was assessed.
(§3) Cell Growth Measurement: Cells were plated at 40 k cells per well (6-well plate) in DMEM 5% FBS-T for all cell lines except for I-IMEC cells which were plated in supplemented MEBM from Clonetics. Cells were treated every 48 hours and media was refreshed every 96 hours. After 10 days of treatment cells were harvested in 0.1N NaOH and growth was quantified by analyzing protein content of lysates with a Lowry assay.

MCF-7 = assay: Cell growth measurement; conditions: 10 days of treatment
Experimental: as §2, §3

SkBr3 = assay: Cell growth measurement; conditions: 10 days of treatment
Experimental: as §2, §3

[3] = test system: normal human mammary epithelial cells (HMEC); assay: Cell growth measurement

RARα agonism (BRET signal) (RARα): agonists of RARα
SMILES: CC1=C(/C=C/C(C)=C/C=C/C(C)=C/C(=O)O)C(C)(C)CCC1 [ATRA, all-trans-retinoic acid]
induction of RAR target genes (RT-qPCR) [1]: no induction of either RARB1 or RARB2
induction of RAR target genes (RT-qPCR) [2]: only induce RARB2
effect on cell growth (MDA-MB-231): little to no effect

RARα agonism (BRET signal) (RARα): no increase in BRET signal
SMILES: CN1c2ccccc2N=C(c2ccc(C(=O)O)cc2)c2cc3c(cc21)C(C)(C)CCC3(C)C [HX600]

SMILES: O=C(CCCCCCC(=O)Nc1ccccc1)NO [SAHA, reference compound]
effect on cell growth (MCF-7): shallow activity
effect on cell growth (MDA-MB-231): modest decrease in cell growth
effect on cell growth (SkBr3): shallow activity
effect on growth of normal cells [3]: strong inhibition

SMILES: CC1(C)CCC(C)(C)c2cc(-c3ccc4cc(C(=O)O)ccc4c3)ccc21 [TTNN, 6-(5,6,7,8-tetrahydro-5,5,8,8-tetramethyl-2-naphthalenyl)-2-naphthalene carboxylic acid, reference compound]
RARα agonism (BRET signal) (RARα): agonists of RARα
induction of RAR target genes (RT-qPCR) [1]: no induction of either RARB1 or RARB2
induction of RAR target genes (RT-qPCR) [2]: only induce RARB2
effect on cell growth (MCF-7): inactive
effect on cell growth (MDA-MB-231): little to no effect
effect on cell growth (SkBr3): inactive
